US9107954B2, “Bivalent ligands for the treatment of neurological disorders” (Virginia Commonwealth University, priority 2012, dated 2015)

Key:
[1] = system: RANTES; experiment: Chemokine release ELISA, HIV-1 infected astroglia supernatant: RANTES; type: cell-based, human; conditions: 18-20 h; bivalent ligand ± morphine
Method: (§1) The protein levels of the cytokines TNF-α, IL-6, IL-1β and the chemokine RANTES were measured by ELISA (Quantikine kits; R&D Systems Minneapolis, Minn.).
(§2) After 18-20 h exposure, supernatant was removed and analyzed by ELISA to quantitatively analyze the release of the cytokines TNF-α, IL-1β and IL-6 and the chemokine RANTES.

[2] = system: IL-6; experiment: Cytokine release ELISA, HIV-1 infected astroglia supernatant: IL-6; type: cell-based, human; conditions: 18-20 h; bivalent ligand ± morphine
Method: as §1, §2

[3] = system: fusion of CCR5-MOR CHO target cells (CD4) with HEK effector cells (HIV-1 gp140); type: cell-based
[4] = molecular target: MOR (Homo sapiens (Human), UniProt P35372); experiment: Calcium mobilization assay, CCR5-MOR CHO co-expressed cell line (Gqi5), DAMGO-stimulated; type: cell-based
Method: (§3) Having a cell line that consistently expresses both CCR5 and MOR was essential for studying how the two receptors interact with each other using calcium mobilization assays and cell fusion assays. A previously established MOR Chinese hamster ovarian (CHO) cell line was transfected with a plasmid containing CCR5 tagged with a yellow fluorescent protein on its N-terminus (CCR5-YFP). ^1 After 48 hours cells were sorted based upon the presence of the yellow fluorescent protein tag using a flow cytometer. Cells containing the tagged receptors were then cultured and used in the subsequent assays.
(§4) Calcium mobilization is directly related to G protein-coupled receptor (GPCR) activation and therefore is a useful technique to study the functional activity of new ligands.

[5] = molecular target: mu opioid receptor (Homo sapiens (Human), UniProt P35372); experiment: biochemical; conditions: read-out: Emax, 35S-GTP[γS] binding
Method: MOR/CHO cell culture and membrane homogenate preparation followed literature report^52.
For competition binding assay (agonists or antagonists), Hill plots linear regression analysis and the Cheng-Prusoff equation were applied to determine the IC50 and Ki values. In [^35S]GTPγS binding assays, agonist concentration effect curves were fit by non-linear regression to obtain Emax and EC50 values; antagonist inhibition of agonist-stimulated [^35S]GTPγS binding was analyzed by Hill analysis and AD50 values were corrected to Ki values using the Cheng-Prusoff equation. All analyses were using Prism 4.0.

[6] = system: CCR5 and MOR; experiment: Flow cytometry of CCR5 and MOR co-localization in HIV-1 infected primary human astrocytes; type: cell-based
Method: (§5) MOR and CCR5 immunoreactivity were detected by direct immunofluorescence in astroglial cells by flow cytometric analysis. Cells were washed in phosphate-buffered saline (PBS)-0.1% bovine serum albumin (BSA) buffer and incubated with primary MOR antibody followed by a secondary antibody conjugated to allophycocyanin (APC) (Biolegend, Inc; catalog #408001) and Alexa Fluor® 488 conjugated anti-mouse CD195 (CCR5) antibody (Biolegend, Inc; catalog #107008) in permeabilization buffer (PBS-0.1% BSA-0.1% Triton X-100) at a 1:500 dilution. Fluorescence was measured from 10,000 gated cells per treatment in each experiment using a FACSCanto II flow cytometer (BD Biosciences, San Jose, Calif.). Auto-fluorescence was compensated by setting the detector voltage to the minimum level that discriminates between auto-fluorescence and specific immunofluorescence in both negative and positive controls. Isotype control antibodies were used to define settings in histogram plot analyses.
(§6) We quantitatively analyzed the effect of MVC and the bivalent compound on CCR5 and MOR expression levels in virally infected astrocytes by flow cytometry. […] Approximately 20,000 events were analyzed per treatment condition in each experiment and size discrimination was used as a crude method for viability determination.

[7] = molecular target: T1, CCR5 (Homo sapiens (Human), UniProt P51681); experiment: RANTES-stimulated Ca2+ flux assay in Gqi5 transfected CCR5-MOLT-4 cells (Example 4); type: cell-based
T1 sequence (P51681 whole entry): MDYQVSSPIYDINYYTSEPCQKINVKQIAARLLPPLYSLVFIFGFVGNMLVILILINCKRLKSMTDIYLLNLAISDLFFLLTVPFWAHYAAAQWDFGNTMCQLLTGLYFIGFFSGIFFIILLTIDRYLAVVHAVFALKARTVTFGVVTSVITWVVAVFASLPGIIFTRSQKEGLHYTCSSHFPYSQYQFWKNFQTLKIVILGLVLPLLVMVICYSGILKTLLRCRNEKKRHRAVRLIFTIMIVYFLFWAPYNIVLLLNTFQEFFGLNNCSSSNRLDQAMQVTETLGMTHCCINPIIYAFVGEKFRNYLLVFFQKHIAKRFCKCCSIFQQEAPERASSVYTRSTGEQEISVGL

[8] = molecular target: T1, CCR5; experiment: Calcium mobilization assay, CCR5-MOR CHO co-expressed cell line (Gqi5), RANTES-stimulated; type: cell-based; conditions: cells stimulated with RANTES
Method: as §3, §4

[9] = system: CCR5; experiment: Flow cytometry of CCR5 immunofluorescence in HIV-1 infected primary human astrocytes; type: cell-based; conditions: maraviroc co-exposure; bivalent ligand ± morphine
Method: as §5, §6

[10] = system: R5-tropic HIV-1Bal Vpr-GFP in primary astroglial cells; experiment: Confocal microscopy of HIV-1Bal Vpr-GFP entry into astroglial cells; type: cell-based; conditions: 100 nM, 18 to 20 h
Method: For direct visualization of viral entry, fluorescent HIV-1 particles were generated by co-transfection of a vector containing a full-length R5-tropic HIV-1 provirus (NIH AIDS Research & Reference Reagent Program, Division of AIDS, NIAID, NIH: pWT/BaL (catalog #11414) and Vpr-GFP into HEK-293T cells as described in [9]. Primary astroglial cells were infected with the HIV-1 Vpr-GFP particles in the absence or presence of 100 nM bivalent ligand for 18 to 20 h at 37° C., washed in PBS, fixed with 4% paraformaldehyde, and counterstained with DAPI. Cells were imaged using a Zeiss LSM 700 laser scanning confocal microscope equipped with a 63×(1.42 numerical aperture [NA]) objective, using 488-nm laser excitation with dichroic beam-splitter set at 492 nm to optimize GFP detection.

For Cc1nnc(C(C)C)n1C1CC2CCC(C1)N2CC[C@H](NC(=O)C1CCC(F)(F)CC1)c1ccc(NC(=O)COCC(=O)NCCCCCCCNC(=O)COCC(=O)N[C@@H]2CC[C@@]3(O)[C@H]4Cc5ccc(O)c6c5[C@@]3(CCN4CC3CC3)[C@H]2O6)cc1 (stereo partly shown) [bivalent ligand 1], the “fold decrease in RANTES release compared to R5 HIV-1 alone” value [1] was 1.5 fold, the “fold decrease in IL-6 release compared to R5 HIV-1 alone” value [2] was 1.6 fold and the “effect on cell fusion” value ([3]; 1 at 3000 nM, 2 at 10000 nM, maraviroc at 100 nM) was “significantly lowered cell fusion”. For the same molecule, the “amplification of cell fusion inhibition when morphine present” value ([3]; morphine 300 nM) was 2 fold, the IC50 [4] was 30 ± 2.44 nM and the Emax [5] was 11.7 ± 1.2%. The “fold increase in astrocytes expressing both CCR5 and MOR compared to R5 HIV-1 alone” value [6] was 1.6 fold, the “fold less potent than maraviroc in RANTES induced Ca2+ flux inhibition” value [7] was “approximately 60 fold” and the IC50 ([7]; RANTES stimulated, read-out: Ca2+ inhibition IC50 ± SEM) was 126 ± 28 nM. For the same molecule, the CCR5 agonism ([7]; data not shown) was “no CCR5 agonism”, the IC50 [8] was 6240 ± 251 nM and the “fold decrease in CCR5 expression levels compared to R5 HIV-1” value [9] was 1.8 fold. For the same molecule, the “viral entry by confocal microscopy” value [10] was “abolished viral entry”.
